Experimental data reported in patent US11000033B2, “Ketone or oxime compound, and herbicide” (NISSAN CHEMICAL CORPORATION, priority 2014, dated 2021).

Experiments:
Type in all cases: in vivo
[1] = system: Echinochloa oryzacola Vasing.; assay: Test Example 1: herbicidal activity, application before weed generation in submerged conditions (symbol A); conditions: application herbicide amount 320 g/ha
Method in brief: (§1)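 Pre-emergence, paddy conditions: emulsifiable formulation diluted in water, dosed onto floodwater (4 cm depth) on sowing day. Alluvial soil; weeds sown mixed; rice transplanted at 2.5-leaf stage. Greenhouse 25–30 °C, 3 wk. Score 0–5 (5 = ≥90% kill, 0 = ≤5%).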

Monochoria vaginalis = assay: Test Example 1: herbicidal activity, application before weed generation in submerged conditions (symbol C); conditions: application herbicide amount 320 g/ha
Method in brief: as §1

transplanted rice plant = assay: Test Example 1: effect on crop, application before weed generation in submerged conditions (symbol a); conditions: application herbicide amount 320 g/ha
Method in brief: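 Rice at 2.5 leaf stage transplanted into submerged soil (4 cm depth) sown with three weed species; herbicide applied before weed emergence.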

[2] = system: directly sowed rice plant; assay: Test Example 3: effect on crop by foliage application, Wagner pot (symbol b); conditions: application herbicide amount 320 g/ha, Table 24
Method in brief: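 Wagner pot (1/10000 are), alluvial soil, submerged 0.1–0.5 cm; sown E. crus-galli var. crus-galli, L. chinensis, C. difformis, rice; greenhouse 25–30 °C.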

Lolium multiflorum Lam. [3] = assay: Test Example 4: herbicidal effect by soil treatment (symbol K); conditions: application herbicide amount 320 g/ha
Method in brief: (§2)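 Seeds were sown in sterilized diluvial soil, covered with about 1.5 cm of soil, and the soil surface was sprayed with a water-diluted emulsion of the compound at a predetermined rate. Plants grew in a greenhouse at 25° C. to 30° C.; effects were scored visually 3 weeks after application.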

Chenopodium album = assay: Test Example 4: herbicidal effect by soil treatment (symbol O); conditions: application herbicide amount 320 g/ha
Method in brief: as §2

soybean = assay: Test Example 4: effect on crop by soil treatment (symbol d); conditions: application herbicide amount 320 g/ha
Method in brief: (§3)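 Plants grew in a 25° C. to 30° C. greenhouse after spot-sowing of seeds, including beet, rapeseed, wheat and rice, into sterilized diluvial soil under roughly 1.5 cm of cover soil.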

rice = assay: Test Example 4: effect on crop by soil treatment (symbol b); conditions: application herbicide amount 320 g/ha
Method in brief: as §3

Digitaria ciliaris = assay: Test Example 5: herbicidal effect by foliage application, plastic box (symbol F); conditions: 320 g/ha, 3 weeks after application
Method in brief: (§4)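 Post-emergence spray; diluvial soil (sterilized), ~1.5 cm seed cover; greenhouse 25–30° C; 14-day-old plants; water-diluted emulsion at predetermined dose; visual score at 3 wk post-treatment.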

[4] = system: Echinochloa crus-galli var. crus-galli; assay: Test Example 5: herbicidal effect by foliage application, plastic box (symbol H); conditions: 320 g/ha, 3 weeks after application
Method in brief: as §4

Alopecurus myosuroides = assay: Test Example 5: herbicidal effect by foliage application, plastic box (symbol J); conditions: 320 g/ha, 3 weeks after application
Method in brief: as §4

Lolium multiflorum Lam. [5] = assay: Test Example 5: herbicidal effect by foliage application, plastic box (symbol K); conditions: 320 g/ha, 3 weeks after application
Method in brief: as §4

Abutilon theophrasti = assay: Test Example 5: herbicidal effect by foliage application, plastic box (symbol M); conditions: 320 g/ha, 3 weeks after application
Method in brief: as §4

Amaranthus retroflexus = assay: Test Example 5: herbicidal effect by foliage application, plastic box (symbol N); conditions: 320 g/ha, 3 weeks after application
Method in brief: as §4

corn = assay: Test Example 5: effect on crop by foliage application, plastic box (symbol c); conditions: 320 g/ha, 3 weeks after application
Method in brief: (§5)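 Sterilized diluvial soil, plastic box (21 × 13 × 7 cm); spot sowing, ~1.5 cm soil cover; greenhouse 25–30° C.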

rice plant = assay: Test Example 5: effect on crop by foliage application, plastic box (symbol b); conditions: 320 g/ha, 3 weeks after application
Method in brief: as §5

Structure (SMILES)	Herbicidal effect grade, A: Echinochloa oryzacola Vasing. [1]	Herbicidal effect grade, C: Monochoria vaginalis (Monochoria vaginalis)	Effect grade on crop, a: transplanted rice plant (transplanted rice plant)	b (directly sowed rice plant) effect on crop grade [2]	Herbicidal effect grade, K: Lolium multiflorum Lam. (Lolium multiflorum Lam. [3])	Herbicidal effect grade, O: Chenopodium album (Chenopodium album)	Effect on crop grade, d: soybean (soybean)	Effect on crop grade, b: directly sowed rice plant (rice)	F: Digitaria ciliaris, herbicidal effect grade (Digitaria ciliaris)	H: Echinochloa crus-galli var. crus-galli, herbicidal effect grade [4]	J: Alopecurus myosuroides, herbicidal effect grade (Alopecurus myosuroides)	K: Lolium multiflorum Lam., herbicidal effect grade (Lolium multiflorum Lam. [5])	M: Abutilon theophrasti, herbicidal effect grade (Abutilon theophrasti)	N: Amaranthus retroflexus, herbicidal effect grade (Amaranthus retroflexus)	c: corn, effect on crop grade (corn)	b: directly sowed rice plant, effect on crop grade (rice plant)	other results
COc1cc(Br)cc(C)c1C1=C(O)CC(CC(C)=O)C1=O (stereo not drawn) [7-027, 2-(4-bromo-2-methoxy-6-methylphenyl)-3-hydroxy-5-(2-oxopropyl)cyclopent-2-enone]	4 (Herbicidal ratio of 70% or higher and lower than 90%)	2 (Herbicidal ratio of 20% or higher and lower than 40%)	3 (Herbicidal ratio of 40% or higher and lower than 70%)	5 (Herbicidal ratio of 90% or more (almost completely withered))	5 (Herbicidal ratio of 90% or more (almost completely withered))	0 (Herbicidal ratio of 5% or lower (almost no effect))	0 (Herbicidal ratio of 5% or lower (almost no effect))	5 (Herbicidal ratio of 90% or more (almost completely withered))	–	–	–	–	–	–	–	–	F: Digitaria ciliaris, herbicidal effect (criteria of Test Example 1) (Digitaria ciliaris): 5 (Herbicidal ratio of 90% or more (almost completely withered)); H: Echinochloa crus-galli var. crus-galli, herbicidal effect (criteria of Test Example 1) [4]: 5 (Herbicidal ratio of 90% or more (almost completely withered)); J: Alopecurus myosuroides, herbicidal effect (criteria of Test Example 1) (Alopecurus myosuroides): 1 (Herbicidal ratio of 5% or higher and lower than 20%); K: Lolium multiflorum Lam., herbicidal effect (criteria of Test Example 1) (Lolium multiflorum Lam. [5]): 5 (Herbicidal ratio of 90% or more (almost completely withered)); M: Abutilon theophrasti, herbicidal effect (criteria of Test Example 1) (Abutilon theophrasti): 0 (Herbicidal ratio of 5% or lower (almost no effect)); N: Amaranthus retroflexus, herbicidal effect (criteria of Test Example 1) (Amaranthus retroflexus): 0 (Herbicidal ratio of 5% or lower (almost no effect)); c: corn, effect on crop (criteria of Test Example 1) (corn): 5 (Herbicidal ratio of 90% or more (almost completely withered)); b: directly sowed rice plant, effect on crop (criteria of Test Example 1) (rice plant): 3 (Herbicidal ratio of 40% or higher and lower than 70%)
CC(=O)C1CC(O)=C(c2c(C)cc(C)cc2C)C1=O (stereo not drawn) [8-001]	0 (Herbicidal ratio of 5% or lower (almost no effect))	0 (Herbicidal ratio of 5% or lower (almost no effect))	0 (Herbicidal ratio of 5% or lower (almost no effect))	0 (Herbicidal ratio of 5% or lower (almost no effect))	0 (Herbicidal ratio of 5% or lower (almost no effect))	0 (Herbicidal ratio of 5% or lower (almost no effect))	0 (Herbicidal ratio of 5% or lower (almost no effect))	0 (Herbicidal ratio of 5% or lower (almost no effect))	1 (Herbicidal ratio of 5% or higher and lower than 20%)	1 (Herbicidal ratio of 5% or higher and lower than 20%)	0 (Herbicidal ratio of 5% or lower (almost no effect))	1 (Herbicidal ratio of 5% or higher and lower than 20%)	0 (Herbicidal ratio of 5% or lower (almost no effect))	0 (Herbicidal ratio of 5% or lower (almost no effect))	0 (Herbicidal ratio of 5% or lower (almost no effect))	2 (Herbicidal ratio of 20% or higher and lower than 40%)	–
CON=C(C)C(=NOC)C1CC(O)=C(c2c(C)cc(C)cc2C)C1=O (stereo not drawn) [8-003]	0 (Herbicidal ratio of 5% or lower (almost no effect))	0 (Herbicidal ratio of 5% or lower (almost no effect))	0 (Herbicidal ratio of 5% or lower (almost no effect))	0 (Herbicidal ratio of 5% or lower (almost no effect))	0 (Herbicidal ratio of 5% or lower (almost no effect))	0 (Herbicidal ratio of 5% or lower (almost no effect))	0 (Herbicidal ratio of 5% or lower (almost no effect))	0 (Herbicidal ratio of 5% or lower (almost no effect))	0 (Herbicidal ratio of 5% or lower (almost no effect))	0 (Herbicidal ratio of 5% or lower (almost no effect))	0 (Herbicidal ratio of 5% or lower (almost no effect))	2 (Herbicidal ratio of 20% or higher and lower than 40%)	0 (Herbicidal ratio of 5% or lower (almost no effect))	0 (Herbicidal ratio of 5% or lower (almost no effect))	0 (Herbicidal ratio of 5% or lower (almost no effect))	0 (Herbicidal ratio of 5% or lower (almost no effect))	–
